Tests used:
hTR promoter = experiment: hTR-luc reporter, 293T cells; assay type: cell-based, human; settings: luciferase 24 h after transfection
Description: Also, cisplatinum stimulates the promoter's activity in GSE24-2 cells more than in the control cells (FIG. 2B). […] No effect was observed of the expression of GSE24-2 on the promoter hTR^9 using cells expressing DKC or GSE24-2 (FIG. 2C).
Transfection and analysis of gene expression. The 293T cells were transfected transiently using the calcium phosphate method, as described previously^39. The total amount of DNA was maintained constant at 10 μg per million cells. The X-DC cells were transfected transiently by electroporation with 3 μg of pLNCX-GSE24-2 per million cells. The cells VA13 MEFs were transfected with […] of DNA/per million cells using lipofectamine plus (Invitrogen), following the manufacturer's instructions. The protein extracts were prepared and luciferase measured using a commercial kit (Promega). Each test was carried out in triplicate and the experiments were repeated three times. The efficiency of transfection was corrected by co-transfection of the plasmid p-CMV-Renilla.

[1] = tested on: telomerase activity of 293T cell extracts; experiment: in vitro test of telomerase activity inhibition using cisplatinum (TRAP assay, telomeric probe); assay type: biochemical; settings: 293T cell extracts and telomere probe treated in vitro with cisplatinum; rising amounts of peptide
Description: This description for the first time describes use of the previously described peptide GSE 24.2 in an in vitro test of telomerase activity inhibition using cisplatinum with cell extracts from 293T cells and a telomere probe treated with cisplatinum. […] Additionally, the possible bond of the peptide GSE24-2 to the telomere sequence was analysed using gel shift tests, with an oligonucleotide that forms a loop (TEL1) which reconstructs the double chain sequence of the telomere with a small 3′ hanging sequence^41.
Production and purification of the peptide GSE24-2: The DH5α cells of E. coli were transformed with the vector pGATEV GSE24-2 and the lysates were prepared as described previously^33. The fusion protein was purified with glutathione-sepharose and the purity was analysed by means of gel electrophoresis. The GSE24-2 was obtained following digestion with the protease TEV following the manufacturer's instructions. Routinely, 90% was obtained of the digested protein according to what was obtained in SDS-PAGE electrophoresis. The protein was passed twice through a Hi-Trap Ni-NTA column in order to discard polyhistidine tails, undigested protein, TEV protease, and impurities.
Telomere repeat amplification protocol (TRAP). Telomerase activity was measured using the TRAPeze^37 telomerase detection kit (Intergen, Purchase, USA) following the manufacturer's instructions. […]

Compound: O=C1c2ccccc2-c2n[nH]c3cccc1c23 [SP60125]
- activity of the hTR promoter (hTR promoter): capable of activating the activity of this promoter

Compound: peptide GSE24-2: purified peptide GSE24-2 (SEQ ID NO2), fragment of dyskerin, produced in E. coli as fusion protein and cleaved with TEV protease (GFINLDKPSNPSSHEVVAWIRRILRVEKTGHSGTLDPKVTGCLIVCIERATRLVK; listed as Homo sapiens)
- telomerase activity of extracts under inhibition by cisplatinum [1]: protect the telomerase activity of the extracts

Reference: patent US20110300115A1, “USE OF INDUCTOR AGENTS GSE24.2 FOR PRODUCING PHARMACEUTICAL COMPOSITIONS FOR TREATING ILLNESSES RELATING TO CELLULAR SENESCENCE” (priority 2007, published 2011)
